Data published in patent US10369133B2, “Immunosuppressive compounds and therapeutics” (UNIVERSITY OF TENNESSEE RESEARCH FOUNDATION, priority 2013, dated 2019).
Values joined by “and” are separate entries in the source; they are usually repeats but may differ in a detail not shown here. Equal values may be shown once.

Legend:
human islets = assay: Dynamic insulin release (perifusion) assay of human islets; type: cell-based; details: co-incubation with drug; for insulin release pattern under stimulatory glucose: basal then stimulatory glucose
Protocol: Briefly, 50 islets from each group were perifused with basal glucose for 60 min and stimulatory glucose for 30 min and finally with basal glucose until insulin release reversed to the basal level. Samples were collected through an automatic fraction collector and analyzed for insulin content by ELISA.
The insulin secretion from human islets was quantified using a dynamic islet perifusion assay as described before. See Wu et al., 2011, The Journal of Gene Medicine, 13:658-669. Briefly, 50 islets from each group were handpicked and loaded onto a Swinnex 13 chamber (Millipore, Burlington, Mass., USA) and perifused with Krebs-Ringer bicarbonate HEPES buffer of the following composition (in mM): 129 NaCl, 5 NaHCO3, 4.8 KCl, 1.2 KH2PO4, 1.2 MgSO4, 2.5 CaCl2, and 10 HEPES at pH 7.4. The flow rate was maintained at 1 ml/min with a peristaltic pump (Themo Fisher, Waltham, Mass.) and the temperature was maintained at 37° C. with a solution heater (Warner Instruments, Hamden, Conn.). Islets were first perifused with basal glucose for 60 min, stimulatory glucose for 20 min and basal glucose until insulin release reversed to the basal level. The perifusion speed was set to 2 mL/minute and samples were collected once per minute through an automatic fraction collector (Waters, Milford, Mass.) and analyzed for insulin content by ELISA.
A dynamic insulin release assay was used to evaluate the function of human islets. Briefly, […] handpicked human islets were sequentially perfused with basal and stimulatory glucose. The samples were collected using an auto-sampler and subjected to ELISA.

INS-1E cells [1] = assay: TUNEL assay of INS-1E cells; type: cell-based; details: 20 μM
Protocol: (§1) Results are presented as the mean±S.D., n=3. […] Apoptotic cells were stained in dark (arrows). […] Islet was collected and dispersed with 0.25% Trypsin/EDTA into single cell suspension. P3 indicated the percentage of apoptotic cells. All experiments were performed in triplicates. Results are presented as the mean±SD. *p<0.05 as determined by an unpaired Student's t-test, n=6.
The apoptosis of INS-1E cells was analyzed using terminal deoxynucleotidyl transferase dUTP nick end labeling (TUNEL). Briefly, following JP-3-110 treatment for 48 h and cytokine cocktail treatment for additional 48 h, INS-1E cells were characterized by the DeadEnd™ Colorimetric TUNEL system (Promega, Madison, Wis., USA), in which fragmented DNA from apoptotic cells was labeled with biotinylated nucleotide and detected using hydrogen peroxide and diaminobenzidine. For human islets, following treatment with JP-3-110 and cytokines, human islets were digested with 0.25% trypsin/EDTA into a single-cell suspension, stained with the Annexin V-FITC Apoptosis Detection Kit (Abcam, Cambridge, Mass.) and analyzed with flow cytometry. Annexin V binds to phosphatidylserine on the cell surface, which is a feature found in apoptotic cells. Fluorescent intensity was analyzed using CellQuest software (BD Bioscience, Franklin Lakes, N.J.). […]
We then determined the conjugation with TNP can reduce the pro-apoptotic effect of MPA. […]

NF-κB = NF-κB SEAP reporter gene assay in INS-1E cells; type: cell-based, rat; details: for NF-κB activities in INS-1E cells: printed "at 504" (FIG. 2B: 5 μM), cytokine cocktail 10 ng/mL TNFα, 5 ng/mL IL-1β, 10 ng/mL IFN-γ, 24 hours
Protocol: Briefly, a plasmid construct containing NF-kB promoter and SEAP gene was transferred into INS-1E cells by lipofectamine. SEAP was then expressed and secreted into culture supernatant and allowed […] detection using a substrate PNPP under 405 nm. […] NF-kB activity was measured 24 hours after addition of cytokine cocktail (10 ng/mL TNFα, 5 ng/mL IL-1β and 10 ng/mL IFN-γ) alone or with JP-3-110 (5 μM) or TNP (5 μM) or MPA (5 μM). Blank, no cytokine stimulation. Cyt, cytokine cocktail. Results are presented as the mean±S.D., n=3.
INS-1E cells which were stably transfected with the SEAP gene containing the response-element for NF-κB were used to screen for anti-inflammatory activity. Briefly, 10^6 cells/well were seeded overnight followed by treatment with 10 ng/mL human recombinant TNFα and either TNP or hybrid drug JP-3-110 (1 μM). SEAP activity was measured 18 h later in supernatant samples (50 µL) using the NF-κB SEAPorter™ Assay Kit (IMGENEX, San Diego, Calif.) and a microplate luminometer. SEAP activity was normalized to the total protein content.

INS-1E cells [2] = assay: Caspase 3 activity in INS-1E cells (Caspase-Glo 3); type: cell-based; details: 20 μM (each), 2 days
Protocol: as §1
A cytokine cocktail (5 ng/ml TNFα and 5 ng/ml IL-1β) was used to mimic the in vivo challenge to the INS-1E cells and human islets by the inflammatory cytokines. Caspase-Glo 3 assay kits were used to analyze caspase 3 as per the manufacturer's protocol (Promega, Madison, Wis.). This assay kit provides a proilluminescent caspase substrate, DEVD, that, when cleaved by caspases, will release luciferin to quantitatively determine caspase concentration. […] The contents were then transferred into culture tubes, and luminescence was determined using a luminometer (Berthold, Germany).
We then determined the conjugation with TNP can reduce the pro-apoptotic effect of MPA. […] We first measured the caspase 3 activities of insulin-producing INS-1E cells under the stimulation of MPA alone, or MPA with free TNP, or JP-3-110 (MPA conjugated with TNP). […]

[3] = Hydrolytic stability of JP-3-110 aqueous solution by HPLC; type: physicochemical; details: aqueous solution (0.4 mg/mL) stored in 4° C. for 1 week
Protocol: The peak at 2 minutes was denoted as MPA degraded from JP-3-110.
(§2) Quinic acid amide analog TNP was synthesized as described before. See Zeng et al., 2009, Bioorganic & Medicinal Chemistry Letters, 19:5458-5460. JP-3-110 was synthesized by conjugating TNP with MPA and the structure of JP-3-110 was confirmed by 1H NMR. FIG. 1B. […] FIGS. 7A-7D. To improve solubility, the inventors conceived to introduce aqueous solubility enhancing groups such as ionizable groups —CO2H, —SO3H or amino groups, sugars at positions R1, R2 and/or R10 of Formulas II and III. Such introduction would require routine skills. The ester bond of JP-3-110 is susceptible to hydrolytic degradation, releasing TNP and MPA as two single drugs. More than 40% of JP-3-110 in the aqueous solution will be degraded when stored in 4° C. for 1 week (FIGS. 9A-9C).

[4] = Aqueous solubility of JP-3-110 by HPLC (saturated water solution); type: physicochemical
Protocol: The column was Inertsil ODS-3, 250×4.6 mm, 5 μm. […] From top to bottom, 0.2, 2, 20, 200, 2000 μg/mL of JP-3-110 in acetonitrile (ACN).
as §2

| Structure (SMILES) | insulin release pattern under stimulatory glucose (human islets) | apoptotic cell death (TUNEL) (INS-1E cells [1]) | reduction in NF-κB activities compared among the three groups (NF-κB; MPA, TNP and JP-3-110 compared, cytokine cocktail) | NF-κB activities in INS-1E cells (NF-κB) | caspase 3 activity (INS-1E cells [2]) | JP-3-110 degraded in aqueous solution [3] | solubility class according to USP solubility criteria [4] | solubility ([4]; thermodynamic from solid, by HPLC) | total insulin release to stimulatory glucose (human islets) |
| --- | --- | --- | --- | --- | --- | --- | --- | --- | --- |
| CCCCNC(=O)[C@]1(O)C[C@@H](O)[C@@H](O)[C@H](OC(=O)CC/C(C)=C/Cc2c(OC)c(C)c3c(c2OC(C)=O)C(=O)OC3)C1 [JP-3-110, (1R,2R,3R,5S)-5-(butylcarbamoyl)-2,3,5-trihydroxycyclohexyl (E)-6-(4-acetoxy-6-methoxy-7-methyl-3-oxo-1,3-dihydroisobenzofuran-5-yl)-4-methylhex-4-enoate] | clear biphasic insulin release | effectively reversed | most reduction | significantly reduced | effectively reversed the elevation of caspase 3 activity | More than 40% | practically insoluble | 480 µg/mL and 800 µM |  |
| COc1c(C)c2c(c(O)c1C/C=C(\C)CCC(=O)O)C(=O)OC2 [MPA, mycophenolic acid, reference compound] | impaired the insulin release from both phases | apoptotic cell death |  | significantly reduced | elevation of caspase 3 activity |  |  |  | significantly reduction |
